# Laboratory results from PMC7606612, “Identification of HMGA2 inhibitors by AlphaScreen-based ultra-high-throughput screening assays” (Scientific Reports, 2020).
# Key:
# HMGA2-DNA interactions [1] = biological target: T1, HMGA2-DNA interactions (Mus musculus, UniProt P52927); test: AlphaScreen primary uHTS assay of His-tagged HMGA2 binding to biotin-labeled DNA oligomer FL814; parameters: species or system mammalian; settings: for inhibition of HMGA2-FL814 interactions / inhibition at 5 µM: LOPAC1280 screen, final concentration of 5 µM; for inhibition of HMGA2-DNA interactions (in words): confirmed hits that do not bind to DNA; for IC50: positive controls, Fig. S1e
# T1 construct: made in house
# T1 sequence (P52927 2-108 limits assumed): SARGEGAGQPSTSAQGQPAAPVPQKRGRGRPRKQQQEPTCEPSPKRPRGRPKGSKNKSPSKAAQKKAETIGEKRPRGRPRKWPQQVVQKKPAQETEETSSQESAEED
# Protocol: To address these limitations, we established a new assay using AlphaScreen technology. The assay entails binding a biotin-labeled DNA oligomer FL814 and His-tagged HMGA2 to streptavidin-coated donor beads and nickel chelate (Ni-NTA) acceptor beads, respectively (Fig. 1). A series of DNA binding studies were performed to determine the optimal conditions for the AlphaScreen Primary Assay (Fig. S1a–d). […] These two inhibitors are readily available for purchase and served as positive controls for HMGA2-DNA interaction inhibition in the assay.
# Using a Labcyte Echo 555 acoustic dispenser 5 nL of DMSO were added to columns 1–4 and 45–48 of a white 1536 well plate, while 5 nL of 2 mM compounds in DMSO were added to columns 5–44. Using a Beckman BioRAPTR FRD bulk reagent dispenser 1 µL of assay buffer (30 mM Citrate, 300 mM NaCl, and 0.005% Tween 20) was added to columns 1 and 2. Next 1 µL of assay buffer containing 125 nM HMGA2 was added to columns 3–48 with a Beckman BioRAPTR FRD bulk reagent dispenser. Finally, 1 µL of assay buffer containing 25 nM FL814 was added to every well of the plate using a Beckman BioRAPTR FRD bulk reagent dispenser. The plate was then centrifuged at 200 × g for 1 min. After 30 min at room temperature, 2 µL of bead buffer (10 mM HEPES, 300 mM NaCl and 0.005% Tween 20) containing 20 µg/mL anti-6xHIS acceptor beads and 20 µg/mL streptavidin donor beads were dispensed into every well using a Beckman BioRAPTR FRD bulk reagent dispenser. The plates were then centrifuged at 200 × g for 1 min. After 1 h at room temperature the plates were read on a Perkin Elmer Envision multimode plate reader in AlphaScreen mode.
# HMGA2-DNA interactions [2] = biological target: T1, HMGA2-DNA interactions; test: Protein-DNA interaction ELISA (PDI-ELISA) assay; type: binding, mammalian; settings: for IC50: inhibition of HMGA2-DNA interactions, PDI-ELISA
# Description: The PDI-ELSA assays were described previously[33] and used to determine the inhibition IC50 against HMGA2-DNA interactions. The apparent inhibitory IC50 values were obtained using the following equation: y=min+(max-min/1+10^((x-logIC50)×Hillslope) , where x, y, max, and min represent the inhibitor’s concentration, the inhibition level, the maximum inhibition value, and the minimum inhibition value, respectively.
# HMGA2 = biological target: T2, HMGA2 (Mus musculus, UniProt P52927); test: Isothermal titration calorimetry (ITC), titration into HMGA2; type: binding, mammalian; settings: for HMGA2 Binding site: number of sites
# T2 construct: made in house
# T2 sequence (P52927 2-108 limits assumed): T1 sequence (P52927 2-108 limits assumed)
# Protocol: (§1) ITC experiments were conducted using a VP-ITC titration calorimeter (MicroCal, Inc., Northampton, MA) interfaced to a PC. Origin 7.0, supplied by the manufacturer was used for data acquisition. […] The heat liberated or absorbed is observed as a peak corresponding to the power required keeping the sample and reference cells at identical temperatures. The peak produced during the injection is converted to heat output by integration and corrected for cell volume and sample concentration. […] The net enthalpy for the titration reaction was determined by subtraction of the component heats of dilution.
# [3] = biological target: “AT-hook” peptide 3 (ATHP3) (Homo sapiens, UniProt P52926); test: Isothermal titration calorimetry (ITC), titration into ATHP3; type: binding; settings: for ATHP3 Ka (M^−1) / ATHP3 Binding site: first line; for ATHP3 Binding site: number of sites
# Protocol: as §1
# HMGA2-DNA interactions [4] = biological target: T1, HMGA2-DNA interactions; test: LANCE TR-FRET secondary assay of HMGA2 binding to FL814; parameters: species or system mammalian; concentration or dose not given beside the values; settings: cherry picked primary hits
# Protocol: In this study, we also developed a LANCE time-resolved fluorescence energy transfer (TR-FRET) assay as a secondary assay for our screening. The His-tagged HMGA2 and biotinylated oligomer FL814 were linked to Europium-labeled anti-6 × His antibody and APC-labeled streptavidin, respectively. A series of DNA binding studies were performed to determine the optimal conditions for the secondary Assay (Fig. S2). After these experiments, 12.5 nM of FL814 and 62.5 nM of HMGA2 were chosen for the assay, which is the same for the primary assay. The assay tolerated up to 0.25% DMSO without any significant change in signal (Fig. S2c). For a counterscreen assay to exclude those compounds that nonspecifically bind to the protein surface, an AlphaScreen assay of H4 peptide binding to bromodomain-containing protein 4 (BRD4) was adopted (Fig. S2e). Since we are looking for compounds with anti-metastasis or anti-obesity activities, compounds with high levels of cytotoxicity are undesirable. […] Furthermore, potential DNA-binding compounds, i.e., DNA intercalators, minor groove binders, and DNA alkylating agents, can be identified by analyzing their chemical structures and will be excluded as well.
# Using a Labcyte Echo 555 acoustic dispenser 5 nL of DMSO were added to columns 1–4 and 45–48 of a white 1536 well plate, while 5 nL of 2 mM compounds in DMSO were added to columns 5–44. Using a Beckman BioRAPTR FRD bulk reagent dispenser 1 µL of assay buffer (10 mM Tris, 300 mM NaCl and 0.005% Tween 20) was added to columns 1 and 2. Next, 1 µL of assay buffer containing 125 nM HMGA2 was added to columns 3–48 with a Beckman BioRAPTR FRD bulk reagent dispenser. Finally, 1 µL of assay buffer containing 25 nM FL814 was added to every well of the plate using a Beckman BioRAPTR FRD bulk reagent dispenser. The plate was then centrifuged at 200 × g for 1 min. After 30 min at room temperature 1 µL of assay buffer containing 250 nM LANCE Ultra ULight-anti-6xHIS and 1 µL of assay buffer containing 12 nM LANCE Eu-W1024 Streptavidin was dispensed into every well using a Beckman BioRAPTR FRD bulk reagent dispenser. The plates were then centrifuged at 200 × g for 1 min. After 1 h at room temperature the plates were read on a Perkin Elmer Envision multimode plate reader in TR-FRET mode (excitation @340 nm, first emission at @665 nm, second emission at 615 nm).
# [5] = system: mouse pre-adipocyte 3T3-L1 cells; parameters: method as in PMID 25653160; settings: cited from earlier work
compound,measurement,setting,value
NC(Cc1cc(O)c(O)cc1O)C(=O)O (racemic) [6-hydroxy-DL-DOPA],inhibition of HMGA2-FL814 interactions,HMGA2-DNA interactions [1],≥ 50%
O=C1c2ccccc2C(=O)c2c(NCCc3ccc(O)cc3)ccc(NCCc3ccc(O)cc3)c21 [JFD00244],inhibition of HMGA2-FL814 interactions,HMGA2-DNA interactions [1],≥ 50%
O=C(Nc1cccc(C(=O)Nc2ccc(S(=O)(=O)O)c3cc(S(=O)(=O)O)cc(S(=O)(=O)O)c23)c1)Nc1cccc(C(=O)Nc2ccc(S(=O)(=O)O)c3cc(S(=O)(=O)O)cc(S(=O)(=O)O)c23)c1 [NF023],IC50,HMGA2-DNA interactions [2],10.6 ± 0.46 µM
same,HMGA2 Ka (M^−1),HMGA2; first type of binding sites,2.47 ± 4.53 × 10^6 M^−1
same,HMGA2 Binding site,HMGA2; first type,1.74
same,ATHP3 Ka (M^−1),[3],9.75 ± 3.47 × 10^6 M^−1
same,ATHP3 Binding site,[3],1
O=C(Nc1cc(C(=O)Nc2ccc(S(=O)(=O)O)cc2)cc(C(=O)Nc2ccc(S(=O)(=O)O)cc2)c1)Nc1cc(C(=O)Nc2ccc(S(=O)(=O)O)cc2)cc(C(=O)Nc2ccc(S(=O)(=O)O)cc2)c1 [NF110],IC50,HMGA2-DNA interactions [2],0.87 ± 0.039 µM
same,HMGA2 Ka (M^−1),HMGA2; first type of binding sites,2.04 ± 0.48 × 10^8 M^−1
same,HMGA2 Binding site,HMGA2; first type,2.06
same,HMGA2 Binding site,HMGA2; second type,1.77
same,HMGA2 Ka (M^−1),HMGA2; second type of binding sites,7.16 ± 0.67 × 10^5 M^−1
same,ATHP3 Ka (M^−1),[3],2.17 ± 0.17 × 10^7 M^−1
same,ATHP3 Binding site,[3],1.01
O=C(Nc1cc(C(=O)Nc2ccc(S(=O)(=O)O)cc2S(=O)(=O)O)cc(C(=O)Nc2ccc(S(=O)(=O)O)cc2S(=O)(=O)O)c1)Nc1cc(C(=O)Nc2ccc(S(=O)(=O)O)cc2S(=O)(=O)O)cc(C(=O)Nc2ccc(S(=O)(=O)O)cc2S(=O)(=O)O)c1 [NF449],IC50,HMGA2-DNA interactions [2],0.43 ± 0.18 µM
same,HMGA2 Ka (M^−1),HMGA2; first type of binding sites,5.53 ± 6.14 × 10^7 M^−1
same,HMGA2 Binding site,HMGA2; first type,0.89
same,HMGA2 Binding site,HMGA2; second type,1.63
same,HMGA2 Ka (M^−1),HMGA2; second type of binding sites,8.17 ± 1.33 × 10^5 M^−1
same,ATHP3 Ka (M^−1),[3],1.10 ± 7.35 × 10^11 M^−1
same,ATHP3 Binding site,[3],0.86
Nc1ccc(-c2nc3ccc(-c4nc5ccc(N)cc5[nH]4)cc3[nH]2)cc1 [Ro 90-7501],inhibition of HMGA2-FL814 interactions,HMGA2-DNA interactions [1],≥ 50%
same,inhibition of HMGA2-DNA interactions (in words),HMGA2-DNA interactions [1],strongly inhibit HMGA2-DNA interactions
same,inhibition of HMGA2-DNA interactions,HMGA2-DNA interactions [4],≥ 50%
COc1cccc2c1C(=O)c1c(O)c3c(c(O)c1C2=O)C[C@@](O)(C(C)=O)C[C@@H]3O[C@H]1C[C@H](NCc2ccc(CN[C@H]3C[C@H](O[C@H]4C[C@](O)(C(C)=O)Cc5c(O)c6c(c(O)c54)C(=O)c4c(OC)cccc4C6=O)O[C@@H](C)[C@H]3O)cc2)[C@H](O)[C@H](C)O1 [WP631],IC50,HMGA2-DNA interactions [1],48 nM
O=C(O)C1=CC(=C(c2ccc(O)c(C(=O)O)c2)c2ccc(O)c(C(=O)O)c2)C=CC1=O [aurintricarboxylic acid],inhibition at 5 µM,HMGA2-DNA interactions [1],≥ 50%
same,inhibition of HMGA2-DNA interactions (in words),HMGA2-DNA interactions [1],strongly inhibit HMGA2-DNA interactions
same,inhibition of HMGA2-DNA interactions,HMGA2-DNA interactions [4],≥ 50%
N.N.O=C([O-])C1(C(=O)[O-])CCC1.[Pt+2] [carboplatin],inhibition of HMGA2-FL814 interactions,HMGA2-DNA interactions [1],≥ 50%
same,inhibition of HMGA2-DNA interactions,HMGA2-DNA interactions [4],≥ 50%
N.N.[Cl][Pt][Cl] [cisplatin],inhibition of HMGA2-FL814 interactions,HMGA2-DNA interactions [1],≥ 50%
same,inhibition of HMGA2-DNA interactions,HMGA2-DNA interactions [4],≥ 50%
"CN(N=O)c1ccc(O)c(O)c1 [methyl-3,4-dephostatin]",inhibition of HMGA2-FL814 interactions,HMGA2-DNA interactions [1],≥ 50%
O=C1c2c(O)ccc(O)c2C(=O)c2c(NCCNCCO)ccc(NCCNCCO)c21 [mitoxantrone],inhibition at 5 µM,HMGA2-DNA interactions [1],≥ 50%
same,inhibition of HMGA2-DNA interactions,HMGA2-DNA interactions [4],≥ 50%
Cn1cc(NC(=O)c2cc(NC(=O)CN=C(N)N)cn2C)cc1C(=O)NCCC(=N)N [netropsin],IC50,HMGA2-DNA interactions [1],22 nM
same,differentiation of 3T3-L1 cells into adipocytes,[5],strongly inhibited
Nc1c(S(=O)(=O)O)cc(Nc2ccc(Nc3nc(Cl)nc(Nc4cccc(S(=O)(=O)O)c4)n3)c(S(=O)(=O)O)c2)c2c1C(=O)c1ccccc1C2=O [reactive blue-2],inhibition of HMGA2-FL814 interactions,HMGA2-DNA interactions [1],≥ 50%
O=S(=O)([O-])c1cccc2ccccc12.[Na+] [sodium 1-naphthalenesulfonate],inhibition of HMGA2-DNA interactions (in words),HMGA2-DNA interactions [2]; SAR of suramin analogues,all of these analogues except sodium 1-naphthalenesulfonate potently inhibit HMGA2-DNA interactions
same,binding to HMGA2 (in words),HMGA2,all these chemical compounds except sodium 1-naphthalenesulfonate strongly bind to both HMGA2 and ATHP3
same,binding to ATHP3 (in words),[3],all these chemical compounds except sodium 1-naphthalenesulfonate strongly bind to both HMGA2 and ATHP3
C=C1C[C@@]23CC[C@H]4[C@@](C)(CCC[C@@]4(C)C(=O)O)[C@@H]2CC[C@]1(O)C3 [steviol],inhibition at 5 µM,HMGA2-DNA interactions [1],≥ 50%
N#CC(C#N)=C(N)/C(C#N)=C/c1cc(O)c(O)c(O)c1 [tyrphostin 51],inhibition at 5 µM,HMGA2-DNA interactions [1],≥ 50%
NF546,IC50,HMGA2-DNA interactions [2],5.49 ± 2.81 µM
same,HMGA2 Ka (M^−1),HMGA2; first type of binding sites,1.48 ± 0.47 × 10^7 M^−1
same,HMGA2 Binding site,HMGA2; first type,1.83
same,HMGA2 Binding site,HMGA2; second type,1.98
same,HMGA2 Ka (M^−1),HMGA2; second type of binding sites,3.37 ± 8.81 × 10^5 M^−1
same,ATHP3 Ka (M^−1),[3],4.28 ± 0.47 × 10^6 M^−1
same,ATHP3 Binding site,[3],0.81
indirubin-3′-monoxime,inhibition of HMGA2-FL814 interactions,HMGA2-DNA interactions [1],≥ 50%
